Measured values taken from patent US20260034103A1, “COMPOSITIONS AND METHODS FOR IMPROVING MEMORY AND COGNITION” (priority 2022, published 2026).

Experiments:
Wistar rats = assay: Novel object recognition test, subchronic PCP-induced cognitive impairment; format: in vivo, rat; settings: PCP 5 mg/kg twice daily for 7 days IP
Protocol: The total exploration time of two identical objects in the acquisition trial was measured manually and indicated as the mean±SEM (n=10). No statistical difference was found in the total exploration time among the different groups by one-way ANOVA (P=0.340).
(§1) NDI was calculated using the following equation: novel object interaction time/total interaction time×100(%). Data are represented as the mean±SEM (n=10). Significant difference from control group was indicated by ***P<0.001 (Student's t-test). Significant differences from PCP-treated group were indicated by ##P<0.01, #P<0.05 (Dunnett test). Significant difference from PCP-treated group were indicated by ††P<0.01 (Student's t-test).
Exploration time of each object in retention trial was measured manually and presented as the mean±SEM (n=10). Significant differences from familiar object interaction were indicated by ***P<0.001, **P<0.01 (paired t-test).
A novel object recognition test was conducted to investigate the effect of SP-624 on subchronic PCP-induced cognitive impairment in Wistar rats. Clozapine was used as a positive control.

Long-Evans rats = assay: Novel object recognition test, scopolamine-induced cognitive impairment; format: in vivo, rat; settings: scopolamine 0.1 mg/kg SC
Protocol: Total exploration time of two identical objects in the acquisition trial was measured manually and indicated as the mean±SEM (n=8). No statistical difference was found in the total exploration time among the different groups by one-way ANOVA (P=0.115).
as §1, with “(n=8).” for “(n=10).”, “scopolamine-treated vehicle” for “PCP-treated”, “##P<0.01” for “##P<0.01, #P<0.05”, “†††P<0.001” for “††P<0.01”
Exploration time of each object in retention trial was measured manually and presented as the mean±SEM (n=8). Significant differences from familiar object interaction were indicated by **P<0.01, *P<0.05 (paired t-test).
A novel object recognition test (which evaluates visual learning and memory) was conducted to investigate the effect of compound 1 on scopolamine-induced cognitive impairment in Long-Evans rats. Donepezil was used as a positive control. Scopolamine at 0.1 mg/kg SC reduced the novelty discrimination index (NDI) a measure of cognitive function (FIGS. 4-6).

c1ccc(C2(N3CCCCC3)CCCCC2)cc1 [PCP, reference compound]
NDI compared with sub-chronic vehicle treatment (Wistar rats): significantly decreased

CN1[C@@H]2C[C@@H](OC(=O)[C@H](CO)c3ccccc3)C[C@H]1[C@@H]1O[C@@H]12 [Scopolamine, reference compound]
novelty discrimination index (NDI) (Long-Evans rats): reduced
